In patent US12441719B2, “Inhibitors of SARM1” (Disarm Therapeutics, Inc., priority 2019, dated 2025):

Target: T1, SARM1 (Homo sapiens, UniProt Q6SZW1)
T1 construct: AviTag […]; made in house; host or cells: NRK1-HEK293T cells, transiently transfected; the clarified sonicated lysate was used without purification
T1 sequence (Q6SZW1 with tags, fused parts or gaps): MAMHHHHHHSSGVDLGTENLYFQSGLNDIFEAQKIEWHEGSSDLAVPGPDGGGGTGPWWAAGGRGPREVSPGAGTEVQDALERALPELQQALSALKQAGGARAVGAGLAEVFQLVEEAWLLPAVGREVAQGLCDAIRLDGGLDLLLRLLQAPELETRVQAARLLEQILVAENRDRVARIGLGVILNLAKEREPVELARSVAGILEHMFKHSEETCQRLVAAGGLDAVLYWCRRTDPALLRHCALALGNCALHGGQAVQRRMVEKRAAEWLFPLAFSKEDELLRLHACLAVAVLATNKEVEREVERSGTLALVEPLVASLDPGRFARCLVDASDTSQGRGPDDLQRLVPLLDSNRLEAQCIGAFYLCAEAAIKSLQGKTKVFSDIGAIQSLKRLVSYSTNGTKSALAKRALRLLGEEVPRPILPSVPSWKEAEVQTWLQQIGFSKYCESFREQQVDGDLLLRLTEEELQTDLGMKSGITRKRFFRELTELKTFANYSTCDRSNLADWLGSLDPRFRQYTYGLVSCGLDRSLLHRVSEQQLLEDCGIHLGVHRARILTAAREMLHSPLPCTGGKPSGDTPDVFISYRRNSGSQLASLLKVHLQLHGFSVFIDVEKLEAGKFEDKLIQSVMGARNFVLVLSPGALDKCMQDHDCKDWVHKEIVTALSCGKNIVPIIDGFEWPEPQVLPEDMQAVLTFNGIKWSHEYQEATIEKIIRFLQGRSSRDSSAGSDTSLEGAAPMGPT
Assay: ARM-SAM-TIR SARM1 IC50 assay (NADase activity, NAD+ cleavage)
Format: biochemical
Details: ARM-SAM-TIR lysate 5 μg/mL from NRK1-HEK293T cells; 2 h pre-incubation with compound, 5 μM NAD+, 2 hr room temperature; NAD+ and ADPR by RapidFire mass spectrometry; read-out: SARM1 IC50
Description: This Example describes an assay of ARM-SAM-TTR NADase activity and use of this assay to measure the efficacy of compounds of Formula I or Formula II to block SARM1 mediated NAD+ cleavage. This assay is optimized in such a way as to characterize the efficacy of the compounds in Formula I or Formula II to inhibit SARM1 activity and to calculate an IC50 value for each compound. This assay makes use of full length SARI, which encompasses the ARM, SAM and TTR domains.
Preparation of ARM-SAM-TIR Lysate (STL)
NRK1-HEK293T cells were seeded onto 150 cm^2 plates at 20×10^6 cells per plate. The next day, the cells were transfected with 15 μg ARM-SAM-TIR expression plasmid, SEQ ID NO: 1.
The cultures were supplemented with 1 mM NR at time of transfection to minimize toxicity from ARM-SAM-TIR overexpression. Forty-eight hours after transfection, cells were harvested, pelleted by centrifugation at 1,000 rpm (Sorvall ST 16R centrifuge, Thermo Fisher), and washed once with cold PBS (0.01 M phosphate buffered saline NaCl 0.138 M; KCl 0.0027 M; pH 7.4). The cells were resuspended in PBS with protease inhibitors (cOmplete™ protease inhibitor cocktail, Roche product #11873580001) and cell lysates were prepared by sonication (Branson Sonifer 450, output=3, 20 episodes of stroke). The lysates were centrifuged (12,000×g for 10 min at 4° C.) to remove cell debris and the supernatants (containing ARM-SAM-TIR protein) were stored at −80° C. for later use in the in vitro ARM-SAM-TIR NADase assay (see below). Protein concentration was determined by the Bicinchoninic (BCA) method and used to normalize lysate concentrations.
ARM-SAM-TIR IC50 Assay of Formula I or Formula II Compounds.
The enzymatic assay was performed in a 384-well polypropylene plate in Dulbecco's PBS buffer in a final assay volume of 20 μL. ARM-SAM-TIR lysate with a final concentration of 5 μg/mL was pre-incubated with the respective compound at 1% DMSO final assay concentration over 2 h at room temperature. The reaction was initiated by addition of 5 μM final assay concentration of NAD+ as substrate. After a 2 hr room temperature incubation, the reaction was terminated with 40 μL of stop solution of 7.5% trichloroactetic acid in acetonitrile. The NAD+ and ADPR concentrations were analyzed by a RapidFire High Throughput Mass Spectrometry System (Agilent Technologies, Santa Clara, CA) using an API4000 triple quadrupole mass spectrometer (AB Sciex Framingham, MA).

Compound | IC50
N#Cc1cc(N2CCC[C@H](NC(=O)c3cncnc3)C2)nc2ccc(Br)cc12 [Example 139] | < 5 µM
C[C@@H]1CCC[C@H](C)N1c1cc(C#N)c2cc(C#N)ccc2n1 [Example 140] | < 5 µM
N#Cc1cc(N2CCC[C@@H](C(=O)NCc3cnccn3)C2)nc2ccc(Br)cc12 [Example 141] | < 5 µM
N#Cc1cc(N2CC[C@H](C(=O)N3CCCC3)C2)nc2ccc(Br)cc12 [Example 142] | < 5 µM
N#Cc1cc(N2CC[C@@H](C(=O)N3CCCC3)C2)nc2ccc(Br)cc12 [Example 143] | < 5 µM
C[C@@H]1CCC[C@H](C)N1c1cc(C#N)c2ccccc2n1 [Example 144] | < 5 µM
N#Cc1cc(N2CCCC23CCOC3)nc2ccc(Br)cc12 (stereo not drawn) [Example 145] | < 5 µM
N#Cc1cc(N2CCC[C@@H]2C(=O)N2CCCC2)nc2ccc(Br)cc12 [Example 146] | < 5 µM
CC(O)c1ccc2nc(N3[C@H](C)CCC[C@@H]3C)cc(C#N)c2c1 (stereo partly drawn) [Example 147] | < 5 µM
C[C@@H]1CCC[C@H](C)N1c1cc(C#N)c2cc(C(C)(C)O)ccc2n1 [Example 148] | < 5 µM
C[C@@H]1CCC[C@H](C)N1c1cc(C#N)c2cc(CO)ccc2n1 [Example 149] | < 5 µM
N#Cc1cc(N2CCCC(c3ccccn3)C2)nc2ccc(Br)cc12 (stereo not drawn) [Example 150] | < 5 µM
Cn1ccnc1C1CCCN(c2cc(C#N)c3cc(Br)ccc3n2)C1 (stereo not drawn) [Example 151] | < 5 µM
N#Cc1cc(N2CCCC(c3ncccn3)C2)nc2ccc(Br)cc12 (stereo not drawn) [Example 152] | < 5 µM
N#Cc1cc(N2CCCC(n3cccn3)C2)nc2ccc(Br)cc12 (stereo not drawn) [Example 153] | < 5 µM
